For 12 compounds, TGI results are on record in PubChem BioAssay (NCI).

Test systems include CAKI-1 renal; CCRF-CEM leukemia; DU-145 prostate; HCT-15 colon; HOP-92 NSCLC; HT29 colon; IGROV1 ovarian; MCF7 breast; MDA-MB-231 breast; MOLT-4 leukemia; OVCAR-3 ovarian; OVCAR-4 ovarian; RPMI-8226 leukemia; SF-268 CNS; SK-MEL-2 melanoma; SK-MEL-5 melanoma; U251 CNS; UO-31 renal; HCC-2998 colon.
Assay in all cases: DTP human tumour cell line panel, 48 h

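All cell lines were grown in 96-well plates and treated with compound for 48 hours. Definition used: TGI = concentration required for complete inhibition of growth.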

The TGI is the concentration at which net growth stops. High values mean lower sensitivity of the cells, low ones greater sensitivity of the cells. On to `N#C/C(=C\c1cn(Cc2ccccc2)c2ccccc12)c1nn(-c2ccccc2)c(N)c1C#N`, for which the TGI was 47 µM in the experiment on CAKI-1 renal; 47.8 µM in the experiment on CCRF-CEM leukemia; 32.2 µM with DU-145 prostate; > 100 µM in the experiment on HCT-15 colon; 27.2 µM with HOP-92 NSCLC; 27.3 µM with HT29 colon. The concentration for total growth inhibition (TGI) in the experiment with IGROV1 ovarian was 30.7 µM; in the experiment on MCF7 breast, > 100 µM; in the experiment on MDA-MB-231 breast it was 14.2 µM; in the experiment on MOLT-4 leukemia, > 100 µM; in the experiment on OVCAR-3 ovarian, 33.7 µM; with OVCAR-4 ovarian it was 13.7 µM. In addition, the TGI in the experiment with RPMI-8226 leukemia is > 100 µM; in the experiment with SF-268 CNS, 91.7 µM; in the experiment on SK-MEL-2 melanoma, 16.9 µM; with SK-MEL-5 melanoma it was 23.6 µM; with U251 CNS, 26.5 µM; with UO-31 renal, 26.5 µM.

For `O=C1CC(=O)NC(=NN2C(=O)/C(=C/C(=O)c3ccco3)N=C2c2ccccc2)N1`, the TGI with CAKI-1 renal is > 100 µM; in the experiment with CCRF-CEM leukemia, 51.7 µM; in the experiment with DU-145 prostate it was > 100 µM; in the experiment on HCC-2998 colon, > 100 µM; with HCT-15 colon, > 100 µM; with HOP-92 NSCLC, > 100 µM. Also, the TGI in the experiment with HT29 colon is > 100 µM; in the experiment with IGROV1 ovarian, > 100 µM; in the experiment with MCF7 breast, > 100 µM; with MDA-MB-231 breast it was > 100 µM; in the experiment on MOLT-4 leukemia, 60.7 µM; with OVCAR-3 ovarian, > 100 µM. Moreover, the concentration for total growth inhibition (TGI) in the experiment on OVCAR-4 ovarian, with SF-268 CNS, in the experiment with SK-MEL-2 melanoma, in the experiment on U251 CNS and with UO-31 renal was > 100 µM in each case.

Consider `CCOC(=O)CCC(NC(=O)c1ccc(CNc2nc3ccccc3nc2C(=O)OCC)cc1)C(=O)OCC` (stereo not drawn), for which the TGI in the experiment with CCRF-CEM leukemia, in the experiment with DU-145 prostate, in the experiment on HCT-15 colon, with HOP-92 NSCLC, in the experiment on HT29 colon and in the experiment with IGROV1 ovarian was > 100 µM in each case. Also, the TGI in the experiment with MCF7 breast, with MDA-MB-231 breast, with MOLT-4 leukemia, in the experiment with OVCAR-3 ovarian, in the experiment on RPMI-8226 leukemia and in the experiment on SF-268 CNS was > 100 µM throughout. The TGI with SK-MEL-2 melanoma, with SK-MEL-5 melanoma, in the experiment with U251 CNS and in the experiment on UO-31 renal was > 100 µM in each case.

Consider `COc1cc(S(=O)(=O)Nc2nc(-c3ccc(N4C(=O)C(CC(=O)O)SC4c4ccccc4O)cc3)cs2)ccc1Cl` (stereo not drawn), for which the concentration for total growth inhibition (TGI) in the experiment on CAKI-1 renal, with DU-145 prostate, in the experiment on HCC-2998 colon, with HCT-15 colon, in the experiment on HOP-92 NSCLC and with HT29 colon was > 100 µM in each case. The TGI with IGROV1 ovarian, in the experiment with MCF7 breast, in the experiment on MDA-MB-231 breast, in the experiment with MOLT-4 leukemia, in the experiment on OVCAR-3 ovarian and with OVCAR-4 ovarian was > 100 µM in each case. The TGI in the experiment on SF-268 CNS, in the experiment on SK-MEL-2 melanoma, in the experiment on SK-MEL-5 melanoma, in the experiment with U251 CNS and with UO-31 renal was > 100 µM each time.

Turning to `Cc1oc2c(c1C)S(=O)(=O)C(C#N)=C(c1ccccc1)N2`, the TGI in the experiment on CAKI-1 renal, in the experiment on DU-145 prostate, in the experiment with HCC-2998 colon, with HCT-15 colon, in the experiment on HOP-92 NSCLC and in the experiment with HT29 colon was > 100 µM each time. The TGI with IGROV1 ovarian, with MCF7 breast, in the experiment with MDA-MB-231 breast, in the experiment with MOLT-4 leukemia, in the experiment with OVCAR-3 ovarian and with OVCAR-4 ovarian was > 100 µM each time. Besides, the TGI in the experiment on RPMI-8226 leukemia, in the experiment with SF-268 CNS, in the experiment with SK-MEL-2 melanoma, with SK-MEL-5 melanoma, in the experiment with U251 CNS and in the experiment on UO-31 renal was > 100 µM each time.

`O=C(O)c1ccc(P(=O)(O)c2ccc(C(=O)O)cc2Br)c(Br)c1`: the TGI in the experiment on CAKI-1 renal, in the experiment with DU-145 prostate, in the experiment on HCC-2998 colon, with HCT-15 colon, with HOP-92 NSCLC and in the experiment with IGROV1 ovarian was > 100 µM in each case. The TGI in the experiment on MCF7 breast, with MDA-MB-231 breast, in the experiment with MOLT-4 leukemia, in the experiment with OVCAR-3 ovarian, in the experiment on RPMI-8226 leukemia and in the experiment with SF-268 CNS was > 100 µM each time. Moreover, the TGI with SK-MEL-2 melanoma, in the experiment on SK-MEL-5 melanoma and with UO-31 renal was > 100 µM in each case.

With `CNc1c2cccc(C)c2nc2c(C(=O)NCCN(C)C)cccc12`, the TGI came out at 0.23 µM with CAKI-1 renal; 0.684 µM in the experiment with DU-145 prostate; 0.192 µM in the experiment on HCC-2998 colon; 0.634 µM in the experiment with HCT-15 colon; 0.522 µM in the experiment on HOP-92 NSCLC; 0.138 µM with HT29 colon. Also, the concentration for total growth inhibition (TGI) with IGROV1 ovarian stood at 10.6 µM; in the experiment on MCF7 breast, 0.96 µM; in the experiment on MDA-MB-231 breast, 0.274 µM; in the experiment with MOLT-4 leukemia, 0.306 µM; with OVCAR-3 ovarian, 1.05 µM; in the experiment on OVCAR-4 ovarian, 0.114 µM. The TGI in the experiment with RPMI-8226 leukemia amounted to 0.57 µM; in the experiment on SF-268 CNS, 0.318 µM; in the experiment on SK-MEL-2 melanoma it was 0.996 µM; in the experiment on SK-MEL-5 melanoma, 0.593 µM; with U251 CNS it was 0.651 µM; in the experiment with UO-31 renal, 2.49 µM.

For `O=C(c1cc(Cl)cc(Cl)c1)N(C(=O)N1CCN(c2ccccc2)CC1)c1ccccc1`, the TGI with CAKI-1 renal, in the experiment with CCRF-CEM leukemia, with DU-145 prostate, in the experiment with HCC-2998 colon, in the experiment on HCT-15 colon and in the experiment on HOP-92 NSCLC was > 100 µM each time. Besides, the TGI with HT29 colon, in the experiment on MCF7 breast, in the experiment on MDA-MB-231 breast, in the experiment on MOLT-4 leukemia, with OVCAR-3 ovarian and with OVCAR-4 ovarian was > 100 µM each time. In addition, the TGI in the experiment on SF-268 CNS was > 100 µM; in the experiment with SK-MEL-2 melanoma it was > 100 µM; in the experiment with SK-MEL-5 melanoma, 75.7 µM; in the experiment with U251 CNS, > 100 µM; in the experiment on UO-31 renal, > 100 µM.

In the case of `OC(CCN1CCCCC1)(c1ccccc1)c1ccccc1`, the TGI in the experiment on CAKI-1 renal, in the experiment with CCRF-CEM leukemia, with DU-145 prostate, in the experiment with HCT-15 colon, with HOP-92 NSCLC and in the experiment with HT29 colon was > 100 µM in each case. For the same compound, the TGI in the experiment with IGROV1 ovarian, in the experiment on MCF7 breast, in the experiment with MDA-MB-231 breast, with MOLT-4 leukemia, with OVCAR-3 ovarian and in the experiment with RPMI-8226 leukemia was > 100 µM throughout. Further, the TGI with SF-268 CNS, in the experiment with SK-MEL-2 melanoma, in the experiment with SK-MEL-5 melanoma, with U251 CNS and in the experiment with UO-31 renal was > 100 µM each time.

In the case of `CO[C@H]1c2cccc3cccc(c23)[C@@H]1n1[nH]c(=O)n(C(C)(C)C)c1=O`, the TGI in the experiment with CAKI-1 renal, in the experiment with CCRF-CEM leukemia, in the experiment on DU-145 prostate, in the experiment on HCC-2998 colon, in the experiment on HCT-15 colon and with HT29 colon was > 100 µM throughout. Moreover, the TGI in the experiment on IGROV1 ovarian, in the experiment on MCF7 breast, in the experiment on MDA-MB-231 breast, in the experiment with MOLT-4 leukemia, with OVCAR-3 ovarian and in the experiment on OVCAR-4 ovarian was > 100 µM each time. The TGI with RPMI-8226 leukemia, with SF-268 CNS, in the experiment with SK-MEL-2 melanoma, with U251 CNS and in the experiment on UO-31 renal was > 100 µM each time.

`COc1cc(S(=O)(=O)Nc2nc(-c3ccc(N4C(=O)CSC4c4cccs4)cc3)cs2)ccc1Cl` (stereo not drawn): the TGI is > 100 µM in the experiment with CAKI-1 renal; > 100 µM in the experiment on CCRF-CEM leukemia; > 100 µM in the experiment on DU-145 prostate; 46.7 µM in the experiment on HCT-15 colon; > 100 µM in the experiment on HOP-92 NSCLC; > 100 µM in the experiment with HT29 colon. The TGI is > 100 µM in the experiment on IGROV1 ovarian; > 100 µM in the experiment with MCF7 breast; > 100 µM in the experiment with MDA-MB-231 breast; > 100 µM in the experiment on MOLT-4 leukemia; > 100 µM in the experiment with OVCAR-3 ovarian; 97.7 µM in the experiment with OVCAR-4 ovarian. Moreover, the TGI is > 100 µM with SF-268 CNS; > 100 µM in the experiment on SK-MEL-2 melanoma; > 100 µM in the experiment with SK-MEL-5 melanoma; > 100 µM with U251 CNS; 73.4 µM in the experiment with UO-31 renal.

Take `COc1ccc2cc(Oc3ccc(Cl)cc3)c(=O)oc2c1`: the TGI with CAKI-1 renal, in the experiment with CCRF-CEM leukemia, with DU-145 prostate, in the experiment with HCT-15 colon, in the experiment with HOP-92 NSCLC and in the experiment on HT29 colon was > 100 µM throughout. In addition, the TGI in the experiment on IGROV1 ovarian, in the experiment on MCF7 breast, in the experiment on MDA-MB-231 breast, in the experiment with MOLT-4 leukemia, with OVCAR-3 ovarian and in the experiment with OVCAR-4 ovarian was > 100 µM in each case. Further, the TGI with RPMI-8226 leukemia, in the experiment with SF-268 CNS, in the experiment with SK-MEL-5 melanoma and with UO-31 renal was > 100 µM in each case.
